Measured values reported in US10966426B2, “Herbicidal compositions comprising phenylpyrimidines” (BASF SE, priority 2016, dated 2021).
Values joined by “and” are separate entries in the source; they are usually repeats but may differ in a detail not shown here. Identical values can stand only once.

Experiments:
Type in all cases: in vivo
Avena fatua = experiment: greenhouse pre-emergence treatment, AVEFA
Method in brief: (§1)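 Pre-emergence spray of compounds, alone or as combinations formulated as 10% emulsion concentrate in water, directly after sowing in loamy sand (~3.0% humus); pots hooded until rooting, kept at 10-25° C or 20-35° C per species for 2 to 4 weeks. Damage scored 0-100 (100 = no emergence/complete destruction); Colby expected value E=X+Y−(X·Y/100).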

Helianthus annuus = experiment: greenhouse pre-emergence treatment, HELAN; conditions: HELAN
Method in brief: as §1

Polygonum convolvulus = experiment: greenhouse pre-emergence treatment, POLCO
Method in brief: as §1

Setaria viridis = experiment: greenhouse pre-emergence treatment, SETVI
Method in brief: as §1

Stellaria media = experiment: greenhouse pre-emergence treatment, STEME
Method in brief: as §1

Digitaria sanguinalis = experiment: greenhouse pre-emergence treatment, DIGSA
Method in brief: as §1

Bromus sterilis = experiment: greenhouse pre-emergence treatment, BROST
Method in brief: as §1

[1] = 20 DAT, Ex. 26 solo 31.25 gai/ha
[2] = 20 DAT, Ex. 26 solo 62.5 gai/ha
[3] = Ex. 26 solo, 62.5 gai/ha, 20 DAT
[4] = Ex. 26 solo, 125 gai/ha, 20 DAT
[5] = 20 DAT, solo Ex. 26 62.5 gai/ha
[6] = Ex. 26 solo 31.25 gai/ha, 20 DAT
[7] = Ex. 26 solo 62.5 gai/ha, 20 DAT

COC(=O)c1nc(C2CC2)ncc1-c1ccc(F)cc1Cl [Ex. 26]
% activity (Avena fatua; 20 DAT, AVEFA, Ex. 26 solo 125 gai/ha): 65% and 70% | % activity (Avena fatua; 20 DAT, Ex. 26 solo 125 gai/ha): 65% | % activity (Avena fatua; 21 DAT, AVEFA, Ex. 26 solo 250 gai/ha): 70% | % activity (Avena fatua; AVEFA, 20 DAT, solo Ex. 26 62.5 gai/ha): 55% | % activity (Avena fatua; AVEFA, 20 DAT, solo Ex. 26 62.5 gai/ha (Table X68)): 45% | % activity (Avena fatua; AVEFA, 20 DAT, solo Ex. 26 125 gai/ha): 75% | % activity (Avena fatua; AVEFA, 20 DAT, solo Ex. 26 125 gai/ha (Table X68)): 65% | % activity (Avena fatua; AVEFA, Ex. 26 solo 62.5 gai/ha, 20 DAT): 40% | % activity (Avena fatua; AVEFA, Ex. 26 solo 125 gai/ha, 20 DAT): 65% | % activity (Avena fatua; AVEFA, Ex. 26 solo 250 gai/ha, 20 DAT): 75% | % activity (Avena fatua; Ex. 26 solo, 31.25 gai/ha, 20 DAT, AVEFA): 25% and 20% | % activity (Avena fatua; Ex. 26 solo, 62.5 gai/ha, 20 DAT, AVEFA): 55% | % activity (Helianthus annuus; [1]): 0% | % activity (Helianthus annuus; [2]): 20% | % activity (Helianthus annuus; 20 DAT, Ex. 26 solo 125 gai/ha): 0% | % activity (Helianthus annuus; 21 DAT, Ex. 26 solo 125 gai/ha): 0% | % activity (Helianthus annuus; 21 DAT, Ex. 26 solo 250 gai/ha): 0% | % activity (Helianthus annuus; Ex. 26 solo 125 gai/ha, 21 DAT): 0% | % activity (Helianthus annuus; Ex. 26 solo 250 gai/ha, 21 DAT): 0% | % activity (Helianthus annuus; [3]): 0% | % activity (Helianthus annuus; [4]): 0% | % activity (Helianthus annuus; [5]): 0% | % activity (Helianthus annuus; [6]): 0% | % activity (Helianthus annuus; [7]): 0% | % activity (Helianthus annuus; Ex. 26 solo 125 gai/ha, 20 DAT): 0% | % activity (Polygonum convolvulus; [2]): 0% | % activity (Polygonum convolvulus; 20 DAT, Ex. 26 solo 125 gai/ha): 0% | % activity (Polygonum convolvulus; 20 DAT, POLCO, Ex. 26 solo 31.25 gai/ha): 0% | % activity (Polygonum convolvulus; 20 DAT, POLCO, Ex. 26 solo 62.5 gai/ha): 0% | % activity (Polygonum convolvulus; 20 DAT, POLCO, Ex. 26 solo 125 gai/ha): 0% | % activity (Polygonum convolvulus; 20 DAT, POLCO, Ex. 26 solo 250 gai/ha): 30% | % activity (Polygonum convolvulus; Ex. 26 solo 62.5 gai/ha, 20 DAT, POLCO): 0% | % activity (Polygonum convolvulus; Ex. 26 solo 125 gai/ha, 20 DAT, POLCO): 0% | % activity (Polygonum convolvulus; Ex. 26 solo, 62.5 gai/ha, 20 DAT, POLCO): 0% | % activity (Polygonum convolvulus; Ex. 26 solo, 125 gai/ha, 20 DAT, POLCO): 0% | % activity (Polygonum convolvulus; POLCO, 20 DAT, solo Ex. 26 62.5 gai/ha): 0% | % activity (Polygonum convolvulus; POLCO, 20 DAT, solo Ex. 26 125 gai/ha): 0% | % activity (Polygonum convolvulus; POLCO, Ex. 26 solo 125 gai/ha, 20 DAT): 0% | % activity (Polygonum convolvulus; POLCO, Ex. 26 solo 250 gai/ha, 20 DAT): 30% | % activity (Setaria viridis; [1]): 0% | % activity (Setaria viridis; [2]): 0% | % activity (Setaria viridis; 20 DAT, Ex. 26 solo 125 gai/ha): 10% | % activity (Setaria viridis; Ex. 26 solo 62.5 gai/ha, 20 DAT, SETVI): 0% | % activity (Setaria viridis; Ex. 26 solo 62.5 gai/ha, 21 DAT, SETVI): 0% | % activity (Setaria viridis; Ex. 26 solo 125 gai/ha, 20 DAT, SETVI): 0% | % activity (Setaria viridis; Ex. 26 solo 125 gai/ha, 21 DAT, SETVI): 20% | % activity (Setaria viridis; Ex. 26 solo 250 gai/ha, 21 DAT, SETVI): 25% | % activity (Setaria viridis; Ex. 26 solo, 31.25 gai/ha, 20 DAT, SETVI): 0% | % activity (Setaria viridis; Ex. 26 solo, 62.5 gai/ha, 20 DAT, SETVI): 0% | % activity (Setaria viridis; Ex. 26 solo, 125 gai/ha, 20 DAT, SETVI): 0% | % activity (Setaria viridis; SETVI, 20 DAT, solo Ex. 26 125 gai/ha): 0% | % activity (Setaria viridis; SETVI, Ex. 26 solo 125 gai/ha, 20 DAT): 10% | % activity (Setaria viridis; SETVI, Ex. 26 solo 250 gai/ha, 20 DAT): 35% | % activity (Stellaria media; 20 DAT, Ex. 26 solo 125 gai/ha): 20% | % activity (Stellaria media; 20 DAT, Ex. 26 solo 250 gai/ha): 90% | % activity (Stellaria media; 20 DAT, solo Ex. 26 15 gai/ha): 40% | % activity (Stellaria media; [5]): 30% | % activity (Stellaria media; 20 DAT, solo Ex. 26 125 gai/ha): 0% | % activity (Stellaria media; [6]): 0% | % activity (Stellaria media; [7]): 0% | % activity (Stellaria media; Ex. 26 solo 125 gai/ha, 21 DAT): 30% | % activity (Stellaria media; Ex. 26 solo 250 gai/ha, 21 DAT): 80% | % activity (Stellaria media; [3]): 0% | % activity (Stellaria media; [4]): 0% | % activity (Digitaria sanguinalis; [1]): 30% | % activity (Digitaria sanguinalis; [2]): 30% | % activity (Digitaria sanguinalis; 20 DAT, Ex. 26 solo 125 gai/ha): 60% | % activity (Digitaria sanguinalis; DIGSA, 20 DAT, solo Ex. 26 62.5 gai/ha): 20% | % activity (Digitaria sanguinalis; DIGSA, 20 DAT, solo Ex. 26 125 gai/ha): 45% | % activity (Digitaria sanguinalis; DIGSA, 20 DAT, solo Ex. 26 125 gai/ha (Table X68)): 40% | % activity (Digitaria sanguinalis; DIGSA, Ex. 26 solo 31.25 gai/ha, 20 DAT): 35% | % activity (Digitaria sanguinalis; DIGSA, Ex. 26 solo 62.5 gai/ha, 20 DAT): 55% | % activity (Digitaria sanguinalis; DIGSA, Ex. 26 solo 125 gai/ha, 20 DAT): 60% | % activity (Digitaria sanguinalis; Ex. 26 solo 125 gai/ha, 21 DAT, DIGSA): 45% | % activity (Digitaria sanguinalis; Ex. 26 solo, 31.25 gai/ha, 20 DAT, DIGSA): 5% | % activity (Digitaria sanguinalis; Ex. 26 solo, 125 gai/ha, 20 DAT, DIGSA): 40% | % activity (Bromus sterilis; 20 DAT, BROST, Ex. 26 solo 31.25 gai/ha): 10% | % activity (Bromus sterilis; 20 DAT, BROST, Ex. 26 solo 125 gai/ha): 35% | % activity (Bromus sterilis; 21 DAT, BROST, Ex. 26 solo 125 gai/ha): 60% | % activity (Bromus sterilis; BROST, 20 DAT, solo Ex. 26 125 gai/ha): 35% | % activity (Bromus sterilis; BROST, 20 DAT, solo Ex. 26 125 gai/ha (Table X68)): 30% | % activity (Bromus sterilis; BROST, Ex. 26 solo 62.5 gai/ha, 20 DAT): 20% | % activity (Bromus sterilis; BROST, Ex. 26 solo 125 gai/ha, 20 DAT): 30% | % activity (Bromus sterilis; Ex. 26 solo 125 gai/ha, 20 DAT, BROST): 35% | % activity (Bromus sterilis; Ex. 26 solo, 31.25 gai/ha, 20 DAT, BROST): 0% | % activity (Bromus sterilis; Ex. 26 solo, 62.5 gai/ha, 20 DAT, BROST): 20% | % activity (Bromus sterilis; Ex. 26 solo, 125 gai/ha, 20 DAT, BROST): 30%
